Experimental data from US20230117034A1, “PYRAZOLOTRIAZINES” (Bayer Aktiengesellschaft, priority 2019, published 2023).

Assays:
[1] = target: T1, CDK12 protein level in CAL-120 breast cancer cells (Homo sapiens, UniProt Q9NYV4); experiment: CDK12 protein level: Protein Simple (CDK12, CAL-120); assay type: cell-based; conditions: CAL-120 cells, 18 h with compound, CDK12/HSP90 peak area ratio vs vehicle, median, read-out: CDK12 protein level in CAL-120 breast ca cells, DC50-[mol/l] (median)
T1 construct: endogenous in cells; host or cells: CAL-120 human breast cancer cells (DSMZ ACC 459)
Summary of the method: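 Cells grown 24 h, then treated with compounds for 18 h at 37° C against DMSO controls. Lysates (0.4 microgramms protein) run on Protein Simple 66-440 kDa size assay with CDK12 and HSP90 loading-control antibodies. CDK12/HSP90 peak-area ratios versus vehicle gave DC50 (50% reduction) by 4-parameter fit.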

[2] = system: BRCA1 mRNA expression in CAL-120 cells; experiment: qRT-PCR assay: BRCA1 mRNA expression in CAL-120; assay type: cell-based; conditions: Homo sapiens; Inhibition of BRCA1 mRNA expression in CAL-120 cells; median; read-out: RTqPCR-CAL-120, IC50, BRCA1 (median)
Method: 3. qRT-PCR Assay: BRCA, ATR, MCL1 in MDA-MB-231, CAL-120
Tissue cultured human MDA-MB-231 human breast cancer cells were plated in 500 microL per well at 200,000 cells/well in a 24 well microtiter plate. After 24 h, the cells were exposed continuously for 24 h to test substances (substances were added with Tecan HP 0300 Dispenser). RNA was prepared using Qiagen RNeasy MiniKit (#74106), RNA was quantified using a NanoDrop Equipment, and 600 nano gamms of RNA was coverted to cDNA using a SuperScript VILO kit (Thermofisher #11755050) followed by qPCR amplification. BRCA1 and ATR gene expression was measured by RT-qPCR and normalised to GAPDH housekeeping gene expression. qPCR primer sets have been purchased from Thermo Fisher Scientific/Applied Biosystems: BRCA1, #Hs 01556193; ATR, #Hs 00992123; GAPDH, #Hs 03929097.

T1 sequence (Q9NYV4 whole entry): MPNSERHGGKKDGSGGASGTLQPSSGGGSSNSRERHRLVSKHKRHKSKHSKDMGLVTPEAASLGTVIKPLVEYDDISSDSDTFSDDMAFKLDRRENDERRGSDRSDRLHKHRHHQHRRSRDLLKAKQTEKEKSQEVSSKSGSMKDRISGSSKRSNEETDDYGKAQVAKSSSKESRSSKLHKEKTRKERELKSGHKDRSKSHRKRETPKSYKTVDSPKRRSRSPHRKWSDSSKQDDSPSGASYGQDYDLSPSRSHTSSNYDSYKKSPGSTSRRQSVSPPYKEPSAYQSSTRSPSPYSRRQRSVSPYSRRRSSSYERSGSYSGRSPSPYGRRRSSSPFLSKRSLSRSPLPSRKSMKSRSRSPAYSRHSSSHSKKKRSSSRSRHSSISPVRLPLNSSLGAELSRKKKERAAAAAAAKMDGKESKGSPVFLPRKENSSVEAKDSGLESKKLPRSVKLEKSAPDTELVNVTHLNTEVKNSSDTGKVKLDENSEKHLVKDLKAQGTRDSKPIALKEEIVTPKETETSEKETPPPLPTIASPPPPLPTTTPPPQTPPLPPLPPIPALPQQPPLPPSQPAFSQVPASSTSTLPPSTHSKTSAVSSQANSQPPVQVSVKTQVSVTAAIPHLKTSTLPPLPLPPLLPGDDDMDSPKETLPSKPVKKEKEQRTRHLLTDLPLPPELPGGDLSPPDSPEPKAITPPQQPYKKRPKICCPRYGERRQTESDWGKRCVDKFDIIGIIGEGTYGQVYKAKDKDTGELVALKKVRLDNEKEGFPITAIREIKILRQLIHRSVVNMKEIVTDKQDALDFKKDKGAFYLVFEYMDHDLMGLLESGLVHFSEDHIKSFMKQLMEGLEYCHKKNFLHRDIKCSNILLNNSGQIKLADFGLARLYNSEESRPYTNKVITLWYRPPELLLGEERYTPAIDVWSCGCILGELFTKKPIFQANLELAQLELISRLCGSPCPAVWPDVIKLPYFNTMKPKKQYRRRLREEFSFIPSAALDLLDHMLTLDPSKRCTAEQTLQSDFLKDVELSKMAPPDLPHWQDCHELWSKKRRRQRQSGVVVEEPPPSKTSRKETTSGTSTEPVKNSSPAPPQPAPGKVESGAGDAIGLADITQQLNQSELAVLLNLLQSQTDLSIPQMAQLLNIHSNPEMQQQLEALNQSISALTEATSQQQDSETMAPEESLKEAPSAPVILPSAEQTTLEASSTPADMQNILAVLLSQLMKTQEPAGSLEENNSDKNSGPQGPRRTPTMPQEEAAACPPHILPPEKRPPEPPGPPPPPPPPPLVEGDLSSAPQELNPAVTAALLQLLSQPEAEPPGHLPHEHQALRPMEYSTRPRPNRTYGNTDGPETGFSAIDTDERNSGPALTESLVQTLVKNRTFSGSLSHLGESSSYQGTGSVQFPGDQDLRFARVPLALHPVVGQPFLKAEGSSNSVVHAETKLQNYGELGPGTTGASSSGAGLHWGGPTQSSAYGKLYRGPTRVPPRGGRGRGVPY
T1 sequence (O75909 whole entry partner): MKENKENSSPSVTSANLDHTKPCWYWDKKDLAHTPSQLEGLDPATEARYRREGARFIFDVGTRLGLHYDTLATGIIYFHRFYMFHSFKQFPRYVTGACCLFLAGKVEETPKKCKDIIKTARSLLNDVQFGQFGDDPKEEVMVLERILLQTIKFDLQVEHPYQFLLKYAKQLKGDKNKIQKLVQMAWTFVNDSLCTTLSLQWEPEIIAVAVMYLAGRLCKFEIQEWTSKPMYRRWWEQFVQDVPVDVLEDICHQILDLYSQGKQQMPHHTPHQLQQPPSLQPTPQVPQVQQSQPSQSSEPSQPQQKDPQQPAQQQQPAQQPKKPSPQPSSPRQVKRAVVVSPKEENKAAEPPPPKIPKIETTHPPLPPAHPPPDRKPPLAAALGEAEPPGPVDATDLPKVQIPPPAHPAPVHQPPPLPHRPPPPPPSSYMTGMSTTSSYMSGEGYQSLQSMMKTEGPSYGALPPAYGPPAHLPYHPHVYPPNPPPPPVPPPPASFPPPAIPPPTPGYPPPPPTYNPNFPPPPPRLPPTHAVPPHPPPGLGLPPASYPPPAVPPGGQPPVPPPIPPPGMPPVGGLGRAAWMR

| SMILES | DC50 [1] | IC50 [2] |
| --- | --- | --- |
| Cc1ccnc2[nH]c(CNc3nc(N4CCOCC4)nc4c(Br)cnn34)nc12 [Example 20, 8-bromo-N-[(7-methyl-3H-imidazo[4,5-b]pyridin-2-yl)methyl]-2-(morpholin-4-yl)pyrazolo[1,5-a][1,3,5]triazin-4-amine] | 2.6 nM | 17.7 nM |
| Brc1cnn2c(NCc3nc4c([nH]3)CCCC4)nc(N3CCOCC3)nc12 [Example 21, 8-bromo-2-(morpholin-4-yl)-N-[(4,5,6,7-tetrahydro-1H-benzimidazol-2-yl)methyl]pyrazolo[1,5-a][1,3,5]triazin-4-amine] | > 100 nM | 211 nM |
| Brc1cnn2c(NCc3nc4ccncc4[nH]3)nc(N3CCOCC3)nc12 [Example 22, 8-bromo-N-[(3H-imidazo[4,5-c]pyridin-2-yl)methyl]-2-(morpholin-4-yl)pyrazolo[1,5-a][1,3,5]triazin-4-amine] | 118 nM | – |
| Brc1cnn2c(NCc3nnc(-c4ccccc4)[nH]3)nc(N3CCOCC3)nc12 [Example 24, 8-bromo-2-(morpholin-4-yl)-N-[(5-phenyl-4H-1,2,4-triazol-3-yl)methyl]pyrazolo[1,5-a][1,3,5]triazin-4-amine] | 9.33 nM | 34.5 nM |
| Fc1ccc2[nH]c(CNc3nc(N4CCOCC4)nc4c(Br)cnn34)nc2c1F [Example 25, 8-bromo-N-[(4,5-difluoro-1H-benzimidazol-2-yl)methyl]-2-(morpholin-4-yl)pyrazolo[1,5-a][1,3,5]triazin-4-amine] | < 1 nM | – |

Continued, values first:

| DC50 [1] | IC50 [2] | SMILES |
| --- | --- | --- |
| < 1 nM | – | CC1CN(C)CCN1c1nc(NCc2nc3ccccc3[nH]2)n2ncc(Br)c2n1 (single isomer, unassigned; enantiomer 1) [Example 260, N-(1H-benzimidazol-2-ylmethyl)-8-bromo-2-[(2R or S)-2,4-dimethylpiperazin-1-yl]pyrazolo[1,5-a][1,3,5]triazin-4-amine (Enantiomer 1)] |
| < 1 nM | – | Brc1cnn2c(NCc3ncc(-c4ccccc4)[nH]3)nc(N3CCOCC3)nc12 [Example 23, 8-bromo-2-(morpholin-4-yl)-N-[(5-phenyl-1H-imidazol-2-yl)methyl]pyrazolo[1,5-a][1,3,5]triazin-4-amine] |
